Where two headings read alike, the source gives them in different places.

Assay [1] deals with Phakopsora pachyrhizi. In words: Asian soybean rust, whole-plant fungicidal activity (PHAKPA). The class given is in vivo. The settings on record: read-out: % Disease Control Rating PHAKPA. As for the experimental part: Example C: Evaluation of Fungicidal Activity: Asian Soybean Rust (Phakopsora pachyrhizi; Bayer Code […]) Technical grades of materials were dissolved in acetone, which were then mixed with nine volumes of H2O containing 0.011% Tween-20. The fungicide solutions were applied onto soybean seedlings using an automated booth sprayer to run-off. All sprayed plants were allowed to air dry prior to further handling. Soybean plants (variety 'Williams 82') were grown in soil-less potting mix, with one plant per pot. Ten-day-old seedlings were used for testing. Plants were inoculated as described in Example A. Plants were incubated for 24 h in a dark dew room with 100% relative humidity then transferred to a growth room for disease to develop. Fungicide formulation and application were made as described in Example A. When disease symptoms were fully expressed, disease severity was assessed on the sprayed leaves on a scale of 0 to 100 percent. Percent disease control was calculated using the ratio of disease severity on treated plants relative to untreated plants.

The test system of assay [2] is Rhynchosporium commune. In words: Leaf blotch of barley, whole-plant fungicidal activity (RHYNSE). It counts as in vivo. The conditions noted are these: 24 h, 1DP (1 day protectant), read-out: % Disease Control Rating RHYNSE. On the procedure:
Technical grades of materials were dissolved in acetone, which were then mixed with nine volumes of water (H2O) containing 110 ppm Triton X-100. The fungicide solutions were applied onto wheat seedlings using an automated booth sprayer to run-off. All sprayed plants were allowed to air dry prior to further handling. All fungicides were evaluated using the aforementioned method for their activity vs. all target diseases, unless stated otherwise. Example D: Evaluation of Fungicidal Activity: Leaf Blotch of Barley (Rhynchosporium commune; Bayer Code […]) Barley plants (variety 'Harrington') were grown from seed in a greenhouse in soil-less potting mix until the first leaf was fully emerged, with 7-10 seedlings per pot. These plants were inoculated with an aqueous spore suspension of Rhynchosporium commune after fungicide treatments. After inoculation, the plants were kept in a dark dew room with 100% relative humidity for two days to permit spores to germinate and infect the leaf. The plants were then transferred to a greenhouse for disease to develop. Fungicide formulation and application were made as described in Example A. Disease assessment was conducted as described in Example A.

Assay [3] relates to Zymoseptoria tritici. Put plainly: Septoria leaf blotch of wheat, whole-plant fungicidal activity (SEPTTR). It counts as in vivo, Zymoseptoria tritici on wheat plants (variety 'Yuma'). The conditions noted are these: read-out: % Disease Control Rating SEPTTR. As for the experimental part: Example A: Evaluation of Fungicidal Activity: Septoria Leaf Blotch of Wheat (Zymoseptoria tritici; Bayer Code […]) Technical grades of materials were dissolved in acetone, which were then mixed with nine volumes of water (H2O) containing 110 ppm Triton X-100. The fungicide solutions were applied onto wheat seedlings using an automated booth sprayer to run-off. All sprayed plants were allowed to air dry prior to further handling. All fungicides were evaluated using the aforementioned method for their activity vs. all target diseases, unless stated otherwise. Wheat plants (variety 'Yuma') were grown from seed in a greenhouse in soil-less potting mix until the first leaf was fully emerged, with 7-10 seedlings per pot. These plants were inoculated with an aqueous spore suspension of Zymoseptoria tritici either 3 days prior to fungicide treatment (3 day curative; 3DC) or 1 day after fungicide treatment (1 day protectant; 1DP). After inoculation the plants were kept in 100% relative humidity for three days to permit spores to germinate and infect the leaf. The plants were then transferred to a greenhouse for disease to develop. When disease symptoms were fully expressed on the 1st leaves of untreated plants, infection levels were assessed on a scale of 0 to 100 percent disease severity. Percent disease control was calculated using the ratio of disease severity on treated plants relative to untreated plants.

For assay [4], the system named is Puccinia triticina. Put plainly: Wheat brown rust, whole-plant fungicidal activity (PUCCRT). It counts as in vivo, Puccinia triticina on wheat plants (variety 'Yuma'). The settings on record: 24 h, 1DP (1 day protectant), read-out: % Disease Control Rating PUCCRT. As for the experimental part: Technical grades of materials were dissolved in acetone, which were then mixed with nine volumes of water (H2O) containing 110 ppm Triton X-100. The fungicide solutions were applied onto wheat seedlings using an automated booth sprayer to run-off. All sprayed plants were allowed to air dry prior to further handling. All fungicides were evaluated using the aforementioned method for their activity vs. all target diseases, unless stated otherwise.
Example B: Evaluation of Fungicidal Activity: Wheat Brown Rust (Puccinia triticina; Synonym: Puccinia recondita f sp. tritici; Bayer Code PUCCRT)
Wheat plants (variety ‘Yuma’) were grown from seed in a greenhouse in soil-less potting mix until the first leaf was fully emerged, with 7-10 seedlings per pot. These plants were inoculated with an aqueous spore suspension of Puccinia triticina after fungicide treatments. After inoculation, the plants were kept in a dark dew room with 100% relative humidity overnight to permit spores to germinate and infect the leaf. The plants were then transferred to a greenhouse for disease to develop. Fungicide formulation, application and disease assessment followed the procedures as described in Example A.

Consider `CCc1ccc(CC(=O)c2cc(C)c(/N=C/N(C)CC)cc2C)cc1` [Compound 6], for which the pest or weed control at 200 ppm was above 85% in assay [1] (24 h, 1DP (1 day protectant)); above 85% in assay [1] (72 h, 3DC (3 day curative)); above 85% in assay [2]; above 85% in assay [3] (24 h, 1DP (1 day protectant)); 20 to 50% in assay [3] (72 h, 3DC (3 day curative)); above 85% in assay [4].

On to `CCN(C)/C=N/c1ccc(C(=O)Cc2ccc(C)cc2F)c(C)c1C` [Compound 11], for which the pest or weed control at 200 ppm is above 85% in assay [1] (24 h, 1DP (1 day protectant)); above 85% in assay [1] (72 h, 3DC (3 day curative)); below 20% in assay [2]; below 20% in assay [3] (24 h, 1DP (1 day protectant)); below 20% in assay [3] (72 h, 3DC (3 day curative)); below 20% in assay [4].

As for `CCN(C)/C=N/c1ccc(C(=O)Cc2ccc(C)cc2)c(C)c1C` [Compound 12], the pest or weed control at 200 ppm in assay [1] (24 h, 1DP (1 day protectant)) is 50 to 85%; in assay [1] (72 h, 3DC (3 day curative)) it was 50 to 85%; in assay [2], below 20%; in assay [3] (24 h, 1DP (1 day protectant)), below 20%; in assay [3] (72 h, 3DC (3 day curative)), below 20%; in assay [4], below 20%.

For the compound `CCN(C)/C=N/c1ccc(C(=O)Cc2ccccc2)c(C)c1C` [Compound 16], the pest or weed control at 200 ppm in assay [1] (24 h, 1DP (1 day protectant)) is 50 to 85%; in assay [1] (72 h, 3DC (3 day curative)) it was above 85%; in assay [2] it was below 20%; in assay [3] (24 h, 1DP (1 day protectant)), below 20%; in assay [3] (72 h, 3DC (3 day curative)) it was below 20%; in assay [4], below 20%.

Turning to `CCN(C)/C=N/c1cc(C)c(C(=O)C2CCCC2)cc1C` [Compound 17], the pest or weed control at 200 ppm in assay [1] (24 h, 1DP (1 day protectant)) is above 85%; in assay [1] (72 h, 3DC (3 day curative)), above 85%; in assay [2], above 85%; in assay [3] (24 h, 1DP (1 day protectant)), 50 to 85%; in assay [3] (72 h, 3DC (3 day curative)) it was below 20%; in assay [4], above 85%.

Regarding `CCN(C)/C=N/c1cc(C)c(C(=O)Cc2ccccc2F)cc1C` [Compound 18], the pest or weed control at 200 ppm in assay [1] (24 h, 1DP (1 day protectant)) was above 85%; in assay [1] (72 h, 3DC (3 day curative)) it was above 85%; in assay [2], above 85%; in assay [3] (24 h, 1DP (1 day protectant)), 50 to 85%; in assay [3] (72 h, 3DC (3 day curative)) it was below 20%; in assay [4] it was 50 to 85%.

`CCN(C)/C=N/c1cc(C)c(C(=O)CCC(F)(F)F)cc1C` [Compound 19]: the pest or weed control at 200 ppm is above 85% in assay [1] (24 h, 1DP (1 day protectant)); above 85% in assay [1] (72 h, 3DC (3 day curative)); 20 to 50% in assay [2]; below 20% in assay [3] (24 h, 1DP (1 day protectant)); 20 to 50% in assay [3] (72 h, 3DC (3 day curative)); above 85% in assay [4].

In the case of `CCN(C)/C=N/c1cc(C)c(C(=O)Cc2ccc(F)cc2F)cc1C` [Compound 20], the pest or weed control at 200 ppm in assay [1] (24 h, 1DP (1 day protectant)) is above 85%; in assay [1] (72 h, 3DC (3 day curative)) it was above 85%; in assay [2] it was above 85%; in assay [3] (24 h, 1DP (1 day protectant)), below 20%; in assay [3] (72 h, 3DC (3 day curative)) it was below 20%; in assay [4] it was above 85%.

As to `CCN(C)/C=N/c1cc(C)c(C(=O)CC(C)(C)C)cc1C` [Compound 21], the pest or weed control at 200 ppm is above 85% in assay [1] (24 h, 1DP (1 day protectant)); above 85% in assay [1] (72 h, 3DC (3 day curative)); above 85% in assay [2]; 50 to 85% in assay [3] (24 h, 1DP (1 day protectant)); below 20% in assay [3] (72 h, 3DC (3 day curative)); above 85% in assay [4].

For `CCN(C)/C=N/c1cc(C)c(C(=O)CCC(C)C)cc1C` [Compound 22], the pest or weed control at 200 ppm was above 85% in assay [1] (24 h, 1DP (1 day protectant)); above 85% in assay [1] (72 h, 3DC (3 day curative)); above 85% in assay [2]; below 20% in assay [3] (24 h, 1DP (1 day protectant)); below 20% in assay [3] (72 h, 3DC (3 day curative)); above 85% in assay [4].

`C=CCN(C)/C=N/c1cc(C)c(C(=O)CC2CCCCC2)cc1C` [Compound 39]: the pest or weed control at 200 ppm in assay [1] (24 h, 1DP (1 day protectant)) is 50 to 85%; in assay [1] (72 h, 3DC (3 day curative)), above 85%.

`Cc1cc(C(=O)CC2CCCCC2)c(C)cc1/N=C/N(C)C1CCCCC1` [Compound 40]: the pest or weed control at 200 ppm in assay [1] (24 h, 1DP (1 day protectant)) is below 20%; in assay [1] (72 h, 3DC (3 day curative)), below 20%.

Consider `Cc1cc(C(=O)CC2CCCCC2)c(C)cc1/N=C/N1CCCC1` [Compound 41], for which the pest or weed control at 200 ppm in assay [1] (24 h, 1DP (1 day protectant)) is above 85%; in assay [1] (72 h, 3DC (3 day curative)) it was above 85%.

Consider `Cc1cc(C(=O)CC2CCCCC2)c(C)cc1/N=C/N1CCCCC1` [Compound 42], for which the pest or weed control at 200 ppm is above 85% in assay [1] (24 h, 1DP (1 day protectant)) and above 85% in assay [1] (72 h, 3DC (3 day curative)).

Take `Cc1cc(C(=O)CC2CCCCC2)c(C)cc1/N=C/N1CCOCC1` [Compound 43]: the pest or weed control at 200 ppm in assay [1] (24 h, 1DP (1 day protectant)) is below 20%; in assay [1] (72 h, 3DC (3 day curative)) it was below 20%.

In the case of `Cc1cc(C(=O)CC2CCCCC2)c(C)cc1/N=C/N(C)c1ccccc1` [Compound 44], the pest or weed control at 200 ppm is below 20% in assay [1] (24 h, 1DP (1 day protectant)) and below 20% in assay [1] (72 h, 3DC (3 day curative)).

With `CCN(C)/C=N/c1ccc(C(=O)C2CCC2)cc1C` [Compound 95], the pest or weed control at 200 ppm in assay [1] (24 h, 1DP (1 day protectant)) was 20 to 50%; in assay [1] (72 h, 3DC (3 day curative)), 20 to 50%; in assay [4], above 85%.

`CCN(C)/C=N/c1ccc(C(=O)CC2CCCC2)cc1` [Compound 97]: the pest or weed control at 200 ppm in assay [1] (24 h, 1DP (1 day protectant)) lay in the range of 50 to 85%; in assay [1] (72 h, 3DC (3 day curative)), 50 to 85%; in assay [4] it was 50 to 85%.

Consider `CCN(C)/C=N/c1cc(C(F)(F)F)c(C(=O)C2CCC2)cc1C` [Compound 98], for which the pest or weed control at 200 ppm in assay [1] (24 h, 1DP (1 day protectant)) was 20 to 50%; in assay [1] (72 h, 3DC (3 day curative)), 20 to 50%; in assay [4] it was below 20%.

For the compound `CCN(C)/C=N/c1cc(OC)c(C(=O)C2CCC2)cc1C` [Compound 99], the pest or weed control at 200 ppm in assay [1] (24 h, 1DP (1 day protectant)) was above 85%; in assay [1] (72 h, 3DC (3 day curative)), above 85%; in assay [4], above 85%.

In the case of `CCN(C)/C=N/c1cc(C)c(C(=O)C2CCC2)cc1C(F)(F)F` [Compound 100], the pest or weed control at 200 ppm is above 85% in assay [1] (24 h, 1DP (1 day protectant)); above 85% in assay [1] (72 h, 3DC (3 day curative)); above 85% in assay [4].

`CCN(C)/C=N/c1ccc(C(=O)C2CCC2)c(C)c1` [Compound 101]: the pest or weed control at 200 ppm in assay [1] (24 h, 1DP (1 day protectant)) was below 20%; in assay [1] (72 h, 3DC (3 day curative)), below 20%; in assay [4], below 20%.

With `CCN(C)/C=N/c1cc(C)c(C(=O)C2CCC2)cc1F` [Compound 102], the pest or weed control at 200 ppm was 50 to 85% in assay [1] (24 h, 1DP (1 day protectant)); above 85% in assay [1] (72 h, 3DC (3 day curative)); above 85% in assay [4].

As for `CCN(C)/C=N/c1cc(C)c(C(=O)C2CCC2)cc1OC` [Compound 103], the pest or weed control at 200 ppm in assay [1] (24 h, 1DP (1 day protectant)) is 20 to 50%; in assay [1] (72 h, 3DC (3 day curative)), above 85%; in assay [4], 50 to 85%.

On to `CCN(C)/C=N/c1ccc(C(=O)Cc2c(F)cc(F)cc2F)cc1C` [Compound 104], for which the pest or weed control at 200 ppm in assay [1] (24 h, 1DP (1 day protectant)) is 50 to 85%; in assay [1] (72 h, 3DC (3 day curative)), above 85%; in assay [4] it was above 85%.

(Values after patent US20240000075A1, “FUNGICIDAL ARYL AMIDINES” (CORTEVA AGRISCIENCE LLC, priority 2020, published 2024).)
